Among the data in patent US6924300B2, “Oxyiminoalkanoic acid derivatives” (Takeda Chemical Industries, Ltd., priority 1998, dated 2005) are melting point values, retold here.

Broadly, the melting point is the temperature of the solid-liquid transition.

`Cc1oc(-c2ccccc2)nc1COc1ccc(CO/N=C(\CCC(=O)O)c2cccnc2)cc1` [Example 70, E-4-[4-(5-methyl-2-phenyl-4-oxazolylmethoxy)benzyloxyimino]-4-(3-pyridyl)butyric acid] gave a melting point of 158 to 159 °C.

Compound `CCOC(=O)/C(=N/OCc1ccc(OCc2nc(-c3ccccc3)oc2C)cc1)c1ccc(Br)cc1` [Example 22, ethyl E-2-(4-bromophenyl)-2-[4-(5-methyl-2-phenyl-4-oxazolylmethoxy)benzyloxyimino]acetate] registered a melting point of 105 to 106 °C.

`O=C(O)CCCC/C(=N\OCc1ccc(OCc2nc(-c3ccccc3)no2)cc1)c1ccccc1` [Example 138, E-6-phenyl-6-[4-(3-phenyl-1,2,4-oxadiazol-5-ylmethoxy)benzyloxyimino]hexanoic acid] came in with a melting point of 91 to 92 °C.

Turning to `COc1cc(CO/N=C(\CCC(=O)O)c2ccccc2)cc(OC)c1OCc1nc(-c2ccccc2)oc1C` [Example 146, E-4-[3,5-dimethoxy-4-(5-methyl-2-phenyl-4-oxazolylmethoxy)benzyloxyimino]-4-phenylbutyric acid], the melting point is 89 to 90 °C.

Compound `Cc1oc(-c2ccccc2)nc1COc1ccc(CO/N=C(\CCCCCC(=O)O)c2ccccc2)cc1` [Example 115, E-7-[4-(5-methyl-2-phenyl-4-oxazolylmethoxy)benzyloxyimino]-7-phenylheptanoic acid] displayed a melting point of 84 to 85 °C.

Turning to `Cc1oc(-c2cccs2)nc1COc1ccc(CO/N=C(\CCCCC(=O)O)c2ccccc2)cc1` [Example 135, E-6-[4-[5-methyl-2-(2-thienyl)-4-oxazolylmethoxy]benzyloxyimino]-6-phenylhexanoic acid], the melting point was in the range of 101 to 102 °C.

Regarding `Cc1oc(-c2ccccc2)nc1COc1ccc(CO/N=C(\CCCC(=O)O)c2ccccc2)cc1` [Example 18, E-5-[4-(5-methyl-2-phenyl-4-oxazolylmethoxy)benzyloxyimino]-5-phenylpentanoic acid], the melting point is 129 to 130 °C.

The compound `CCCC/C(=N\OCc1ccc(OCc2nc(-c3ccccc3)oc2C)cc1)C(=O)O` [Example 8, E-2-[4-(5-methyl-2-phenyl-4-oxazolylmethoxy)benzyloxyimino]hexanoic acid] gave a melting point of 112 to 114 °C.

For `Cc1oc(-c2ccccc2)nc1COc1ccc(CO/N=C(/C(=O)O)c2cccc(Oc3ccccc3)c2)cc1` [Example 14, E-2-[4-(5-methyl-2-phenyl-4-oxazolylmethoxy)benzyloxyimino]-2-(3-phenoxyphenyl)acetic acid], the melting point was 55 to 65 °C.

Consider `Cc1oc(-c2ccccc2)nc1COc1ccc(CO/N=C(\CCC(=O)O)c2ccccn2)cc1` [Example 64, E-4-[4-(5-methyl-2-phenyl-4-oxazolylmethoxy)benzyloxyimino]-4-(2-pyridyl)butyric acid], for which the melting point fell in the range of 116 to 117 °C.

Compound `O=C(O)CC/C(=N\OCc1ccc(OCc2ccc3ccccc3n2)cc1)c1ccccc1` [Example 104, E-4-phenyl-4-[4-(2-quinolinylmethoxy)benzyloxyimino]butyric acid] showed a melting point of 133 to 134 °C.

In turn, `O=C(O)CC/C(=N\OCc1ccc(OCc2cn3c(-c4ccccc4)cccc3n2)cc1)c1ccccc1` [Example 57, E-4-[4-(5-phenylimidazo[1,2-a]pyridin-2-ylmethoxy)benzyloxyimino]-4-phenylbutyric acid] had a melting point of 160 to 161 °C.

Consider `O=C(O)CCCC/C(=N\OCc1ccc(OCc2noc(-c3ccccc3)n2)cc1)c1ccccc1` [Example 136, E-6-phenyl-6-[4-(5-phenyl-1,2,4-oxadiazol-3-ylmethoxy)benzyloxyimino]hexanoic acid], for which the melting point lay within 88 to 89 °C.

The compound `O=C(O)CC/C(=N\OCc1ccc(OCc2cn3ccccc3n2)cc1)c1ccccc1` [Example 101, E-4-[4-(imidazo[1,2-a]pyridin-2-ylmethoxy)benzyloxyimino]-4-phenylbutyric acid] returned a melting point of 180 to 182 °C.

Turning to `Cc1oc(-c2ccccc2)nc1COc1ccc(CO/N=C(\C(=O)O)c2ccc(-c3ccsc3)cc2)cc1` [Example 30, Z-2-[4-(5-methyl-2-phenyl-4-oxazolylmethoxy)benzyloxyimino]-2-[4-(3-thienyl)phenyl]acetic acid], the melting point is 205 to 206 °C (dec.).

`Cc1oc(-c2ccccc2)nc1COc1cccc(CO/N=C(\CCC(=O)O)c2ccccc2)c1` [Example 77, E-4-[3-(5-methyl-2-phenyl-4-oxazolylmethoxy)benzyloxyimino]-4-phenylbutyric acid] showed a melting point of 108 to 109 °C.

`Cc1oc(-c2ccccc2)nc1COc1ccc(CO/N=C(\CC(N)=O)c2ccccc2)cc1` [Example 111, E-3-[4-(5-methyl-2-phenyl-4-oxazolylmethoxy)benzyloxyimino]-3-phenylpropanamide] yielded a melting point of 164 to 165 °C.

Regarding `Cc1oc(-c2ccccc2)nc1COc1ccc(CO/N=C2\CC(C(=O)O)c3ccccc32)cc1` (stereo not drawn) [Example 62, E-3-[4-(5-methyl-2-phenyl-4-oxazolylmethoxy)benzyloxyimino]-1-indancarboxylic acid], the melting point fell in the range of 148 to 149 °C.

Consider `Cc1oc(-c2ccccc2)nc1COc1ccc(CO/N=C(\CCC(=O)O)c2ccncc2)cc1` [Example 71, E-4-[4-(5-methyl-2-phenyl-4-oxazolylmethoxy)benzyloxyimino]-4-(4-pyridyl)butyric acid], for which the melting point lay within 161 to 162 °C.

As for `Cc1oc(-c2ccccc2)nc1COc1ccc(CO/N=C(\CCCCCCC(=O)O)c2ccc(F)cc2)cc1` [Example 125, E-8-(4-fluorophenyl)-8-[4-(5-methyl-2-phenyl-4-oxazolylmethoxy)benzyloxyimino]octanoic acid], the melting point fell in the range of 79 to 80 °C.

In turn, `Cc1oc(-c2ccco2)nc1COc1ccc(CO/N=C(\CCC(=O)O)c2ccccc2)cc1` [Example 94, E-4-[4-[2-(2-furyl)-5-methyl-4-oxazolylmethoxy]benzyloxyimino]-4-phenylbutyric acid] yielded a melting point of 124 to 125 °C.

With `Cc1oc(-c2ccccc2)nc1COc1ccc(CO/N=C(\C(=O)O)c2cccnc2)cc1` [Example 35, Z-2-[4-(5-methyl-2-phenyl-4-oxazolylmethoxy)benzyloxyimino]-2-(3-pyridyl)acetic acid], the melting point is 156 to 157 °C (dec.).

As for `Cc1oc(-c2ccccc2)nc1COc1ccc(CO/N=C(/CCC(N)=O)c2ccccc2)cc1` [Example 139, Z-4-[4-(5-methyl-2-phenyl-4-oxazolylmethoxy)benzyloxyimino]-4-phenylbutanamide], the melting point lay within 110 to 112 °C.

For `Cc1oc(-c2cccs2)nc1COc1ccc(CO/N=C(\CCC(=O)O)c2ccccc2)cc1` [Example 97, E-4-[4-[5-methyl-2-(2-thienyl)-4-oxazolylmethoxy]benzyloxyimino]-4-phenylbutyric acid], the melting point lay in the range of 142 to 143 °C.

In turn, `C/C(=N\OCc1ccc(OCc2nc(-c3ccccc3)oc2C)cc1)C(=O)O` [Example 9, E-2-[4-(5-methyl-2-phenyl-4-oxazolylmethoxy)benzyloxyimino]propionic acid] had a melting point of 147 to 148 °C.

For the compound `Cc1oc(-c2ccccc2)nc1COc1ccc(CO/N=C(/c2ccccc2)C(C)(C)C(=O)O)cc1` [Example 110, Z-2,2-dimethyl-3-[4-(5-methyl-2-phenyl-4-oxazolylmethoxy)benzyloxyimino]-3-phenylpropionic acid], the melting point was 142 to 143 °C (dec.).

Turning to `Cc1oc(-c2ccccc2)nc1COc1ccc(CO/N=C(\C(=O)O)c2ccc(F)cc2)cc1` [Example 15, Z-2-(4-fluorophenyl)-2-[4-(5-methyl-2-phenyl-4-oxazolylmethoxy)benzyloxyimino]acetic acid], the melting point was 182 to 183 °C (dec.).

As for `Cc1oc(-c2ccccc2)nc1COc1ccc(CO/N=C(/CCCCC(=O)O)c2ccccc2)cc1` [Example 61, Z-6-[4-(5-methyl-2-phenyl-4-oxazolylmethoxy)benzyloxyimino]-6-phenylhexanoic acid], the melting point lay within 101 to 102 °C.

`O=C(O)CC/C(=N\OCc1ccc(OCc2ccccc2)cc1)c1ccccc1` [Example 98, E-4-(4-benzyloxybenzyloxyimino)-4-phenylbutyric acid] yielded a melting point of 86 to 87 °C.

The compound `Cc1oc(-c2ccccc2)nc1COc1ccc(CO/N=C(/CCCCCCC(=O)O)c2ccc(F)cc2)cc1` [Example 126, Z-8-(4-fluorophenyl)-8-[4-(5-methyl-2-phenyl-4-oxazolylmethoxy)benzyloxyimino]octanoic acid] yielded a melting point of 56 to 57 °C.

For `Cc1oc(-c2ccccc2)nc1COc1ccc(CO/N=C(\CCCCCCC(=O)O)c2ccc(Cl)cc2)cc1` [Example 123, E-8-(4-chlorophenyl)-8-[4-(5-methyl-2-phenyl-4-oxazolylmethoxy)benzyloxyimino]octanoic acid], the melting point lay in the range of 90 to 91 °C.

In turn, `Cc1oc(-c2ccccc2)nc1COc1ccccc1CO/N=C(\CCC(=O)O)c1ccccc1` [Example 144, E-4-[2-(5-methyl-2-phenyl-4-oxazolylmethoxy)benzyloxyimino]-4-phenylbutyric acid] yielded a melting point of 116 to 117 °C.

With `CN(CCOc1ccc(CO/N=C(\CCC(=O)O)c2ccccc2)cc1)c1ncccn1` [Example 51, E-4-[4-[2-(methyl-2-pyrimidylamino)ethoxy]benzyloxyimino]-4-phenylbutyric acid], the melting point lay within 72 to 73 °C.

As for `Cc1oc(-c2ccccc2)nc1COc1ccc(CO/N=C(\Cc2ccccc2)C(=O)O)cc1` [Example 6, E-2-[4-(5-methyl-2-phenyl-4-oxazolylmethoxy)benzyloxyimino]-3-phenylpropionic acid], the melting point was 143 to 144 °C (dec.).

In turn, `O=C(O)CC/C(=N\OCc1ccc(OCc2coc(-c3ccccc3)n2)cc1)c1ccccc1` [Example 102, E-4-phenyl-4-[4-(2-phenyl-4-oxazolylmethoxy)benzyloxyimino]butyric acid] yielded a melting point of 144 to 145 °C.

`Cc1oc(-c2ccccc2)nc1COc1ccc(CO/N=C(/CCCCCCC(=O)O)c2ccc(Cl)cc2)cc1` [Example 124, Z-8-(4-chlorophenyl)-8-[4-(5-methyl-2-phenyl-4-oxazolylmethoxy)benzyloxyimino]octanoic acid] gave a melting point of 54 to 57 °C.
